Data taken from patent US20100168146A1, “Composition Comprising (R)-Spiro[L-Azabicyclo[2.2.2]Octane-3,2'(3'H)-Furo[2,3-B]Pyridine (AZD0328) and its Use in the Treatment of Alzheimer's Disease, ADHD or Cognitive Dysfunction” (priority 2008, published 2010).
Several values for one entry are separate records, joined by “and”; a condition that tells them apart may be missing. Equal values may be shown once. Entries after “also recorded” stand apart in the source; their conditions may differ. Read-outs that look alike come from different tables or passages of the source.

Assays:
[1] = [14C]-AZD0328 QWBA / mass balance; type: in vivo, rat
Protocol: In the mass balance study conducted in fed rats, a Tmax of 0.5 h to 1 h was observed following single and multiple oral doses (solution). The bioavailability of AZD0328 (total radioactivity) in this study was >90%. […] Generally speaking, the elimination was complete within the 24-hour interval at the dose levels tested.
AZD0328 is a low protein binding molecule across species including human (<15%) across the concentration range 21.6 to 21,630 ng/mL (0.1 to 100 μM). In most species, the binding was concentration and gender independent. […] [^14C]-AZD0328-derived radioactivity was rapidly distributed to the organs and tissues with high levels of radioactivity associated with the contents of the GI tract and the major excretion organs, including kidney and liver. The radioactivity declined rapidly and by 168 h postdose radioactivity levels were not detectable in most tissues, with the exception of a few ocular tissues and nasal turbinates. […] Notable association of [^14C]-AZD0328-related radioactivity with the melanin-containing tissues was observed, with measurable radioactivity still present in the ocular tissue at 216 h postdate. [^14C]-AZD0328-derived radioactivity crossed the placenta.
Pharmacokinetics and mass balance of [^14C]-AZD0328 were investigated in rats. The excretion of [^14C]-AZD0328-derived radioactivity in rats was mainly through the kidney. Over the course of the study, radioactivity recovered in urine and feces accounted for approximately 85% and 8%, respectively.

[2] = tested on: rhesus monkeys; assay: Intravenous self-administration (reinforcing potential)
Text: The compound was compared with cocaine and saline for its ability to maintain intravenous self-administration in the monkeys under a lever-press induced drug infusion schedule.

[3] = PK/TK single dose studies; type: in vivo; conditions: rhesus monkey, plasma
Protocol: Pharmacokinetic studies in rats and monkeys were used to estimate the plasma concentrations associated with doses at which AZD0328 improved cognitive performance in these species. For example, in rhesus monkeys, two studies were conducted to determine the pharmacokinetic profile of AZD0328 after administration of 0.048 and 1.7 mg per kg AZD0328. […] We thus estimated the peak plasma concentrations in monkeys that received AZD0328 at 0.00048-0.016 mg per kg to be 0.6-18 nM. Similar studies and calculations in rats, when extended to mice, led us to estimate plasma concentrations at 0.001-0.1 mg per kg body weight to be 0.29-100 nM in these species.
This section provides a summary of the pharmacokinetic and metabolism properties of AZD0328 derived from in vivo studies. […] The derived PK/TK parameters from these studies are presented in Table 4 for single dose studies (DMR4, 0619LR, 20030191PCR, DM016, DMB10, DMW12, 50190, 0190DD and 03.330/1), and are presented in Table 5 multiple dose PK/TK studies (DMR4, 0612AR, DMB15, 50190, 0190DD and 0295AD).

[4] = target: T1, 5-HT3A/B receptors (Homo sapiens, UniProt O95264+P46098); assay: Functional potency at recombinant human receptors in vitro; type: cell-based
T1 construct: expressed in transfected cells
T1 sequence (P46098 24-478): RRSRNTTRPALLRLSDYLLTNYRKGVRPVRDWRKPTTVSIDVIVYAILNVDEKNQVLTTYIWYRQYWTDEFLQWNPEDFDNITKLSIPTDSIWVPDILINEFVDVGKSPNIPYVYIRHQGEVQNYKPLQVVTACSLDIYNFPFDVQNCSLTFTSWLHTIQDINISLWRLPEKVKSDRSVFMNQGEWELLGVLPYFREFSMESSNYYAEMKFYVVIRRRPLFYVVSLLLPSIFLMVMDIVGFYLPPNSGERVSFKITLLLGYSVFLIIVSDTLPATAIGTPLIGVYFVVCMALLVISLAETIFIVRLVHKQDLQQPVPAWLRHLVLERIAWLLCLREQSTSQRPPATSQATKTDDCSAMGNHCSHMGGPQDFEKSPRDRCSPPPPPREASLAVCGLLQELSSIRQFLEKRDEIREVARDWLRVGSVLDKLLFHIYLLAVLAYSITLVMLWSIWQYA
T1 sequence (O95264 22-441): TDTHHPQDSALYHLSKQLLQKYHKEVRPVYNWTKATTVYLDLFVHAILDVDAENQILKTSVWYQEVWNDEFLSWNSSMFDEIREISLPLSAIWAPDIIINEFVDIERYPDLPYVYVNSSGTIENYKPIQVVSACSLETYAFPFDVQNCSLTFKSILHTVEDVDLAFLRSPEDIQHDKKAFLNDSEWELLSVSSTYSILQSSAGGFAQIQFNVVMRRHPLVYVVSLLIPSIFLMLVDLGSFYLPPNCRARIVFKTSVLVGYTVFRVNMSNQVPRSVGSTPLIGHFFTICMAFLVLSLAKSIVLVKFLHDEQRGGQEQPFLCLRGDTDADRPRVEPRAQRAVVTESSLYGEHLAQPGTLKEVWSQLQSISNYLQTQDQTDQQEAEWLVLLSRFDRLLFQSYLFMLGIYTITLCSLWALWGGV

[5] = tested on: ferrets; assay: Emetic potential; type: in vivo; conditions: ferret
Protocol: The emetic potential of AZD0328 was investigated in ferrets (n=6-8/dose) following a single oral dose of vehicle or AZD0328 (Table 3). Videotape recordings were used for observation of the animals up to 4 h after dose for quantitation and timing of emetic behaviours, characterised as retches (abdominal contractions), vomits and wet-dog shakes.

[6] = tested on: fimbria formix transected rats; assay: Fimbria formix transected rat model (DNMTP, DRL, LTP); type: in vivo
Protocol: Previously, AZD0328 has been described, for example in U.S. Pat. No. 6,110,914 and counterpart worldwide patents, as an α7 agonist. In a widely used model of cognitive dysfunction using fimbria formix transected rats challenged to perform Delayed Non-Match to Position or Differential Reinforcement of Low Rates of Responding tasks, agonistic doses of 1 mg per kg and higher of AZD0328 effectively compensated for the acetylcholine deficiencies of these animals. These doses were associated with plasma concentrations at which AZD0328 acts as an agonist at α7 receptors in vitro. However, lower concentrations were ineffective in these model systems.
The potency of AZD0328 to activate α7 receptors in these in vitro preparations was in the micromolar range. […] For example, 1 or 3 mg/kg of AZD0328 reversed deficits in hippocampal long-term potentiation or response accuracy in two different cognitive tests in fimbria-formix lesioned animals (delayed non-match to position and differential reinforcement of low rates of responding). The minimum effective dose of 1 mg per kg necessary to reverse deficits in the rat fimbria formix model produced plasma concentrations in the range 0.29-1.4 μM in the rat, consistent with the range of concentrations required to activate α7 responses in vitro.

SMILES: c1cnc2c(c1)C[C@@]1(CN3CCC1CC3)O2 [AZD0328, (R)-Spiro[1-azabicyclo[2.2.2]octane-3,2′(3′H)-furo[2,3-b]pyridine]]
- Absorbed (urinary radioactivity and AUC, oral versus iv) ([1]; female rat): 95%
- Absorbed (urinary radioactivity and AUC, oral versus iv) ([1]; male rat): 97%
- Radioactivity recovered in feces ([1]; rat): ~8%
- Radioactivity recovered in urine ([1]; rat): approximately 85%
- iv bolus dose after which one monkey died within minutes ([2]; initial dose-finding study): receiving 34.8 mg/kg as iv bolus
- Reinforcing effect ([2]; rhesus monkey, iv infusion 0.384, 1.15 and 3.84 mg/kg/infusion): did not display reinforcing properties; also recorded: No reinforcing effect seen at any
- Self-administration level ([2]; rhesus monkey, not greater than saline): 0.2-1.7 infusions per session
- AUC ([3]; male, im, 0.048 mg/kg, read-out: AUC (converted)): 14.9 ng·h/mL and 0.0684 µM·h
- AUC ([3]; intramuscular, 0.016 mg/kg, rhesus monkeys, read-out: AUC at NOAEL for behavioral side effects): 0.028 µM·h
- Functional potency α7 versus 5-HT3A/B [4]: equipotent
- Emetic responses ([5]; oral gavage 5.6, 16.9 or 56.2 mg/kg): retching, vomiting and wet-dog shakes at all doses
- Dose with statistically significant retches vs vehicle ([5]; single oral dose): 5.6 mg/kg
- Minimum effective dose [6]: 1 mg per kg
